How the values were obtained:
[1] = tested on: wheat; assay: Test A pre-/postemergence herbicide test; assay type: in vivo, Triticum aestivum; conditions: Postemergence
In short: (§1)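 Seeds sown in loam soil/sand blend received a preemergence directed soil spray of test chemical in non-phytotoxic solvent with surfactant; postemergence plants (2–10 cm, one- to two-leaf stage) were sprayed with the same formulation. After about 10 days in greenhouse, injury was rated visually versus untreated controls, 0 (no effect) to 100 (complete control).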

[2] = tested on: giant foxtail; assay: Test A pre-/postemergence herbicide test; assay type: in vivo, Setaria faberii
In short: as §1

[3] = tested on: blackgrass; assay: Test C pre-/postemergence herbicide test; assay type: in vivo, Alopecurus myosuroides
In short: (§2)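 Visual rating, 0 (no effect) to 100 (complete control), versus untreated controls after 13 to 15 days in the greenhouse. Pre: seeds in loam/sand, sprayed at planting. Post: 1- to 4-leaf plants (2 to 18 cm) in peat-based mix. Compounds in non-phytotoxic solvent plus surfactant.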

[4] = tested on: ducksalad; assay: Test B flooded paddy test; assay type: in vivo, Heteranthera limosa; conditions: 500 g ai/ha, Flood; scale of 0 to 100 where 0 is no effect and 100 is complete control
In short: (§3)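 Treatment was made at the 2-leaf stage by dosing the standing floodwater, kept 3 cm above soil level for the whole test. Greenhouse exposure lasted 13 to 15 days. Response is a visual percent rating relative to controls, where a dash indicates no test result.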

[5] = tested on: pigweed; assay: Test C pre-/postemergence herbicide test; assay type: in vivo, Amaranthus retroflexus
In short: as §2

[6] = tested on: crabgrass, large; assay: Test C pre-/postemergence herbicide test; assay type: in vivo, Digitaria sanguinalis
In short: as §2

[7] = tested on: oilseed rape; assay: Test C pre-/postemergence herbicide test; assay type: in vivo, Brassica napus
In short: as §2

[8] = tested on: barnyardgrass; assay: Test C pre-/postemergence herbicide test; assay type: in vivo, Echinochloa crus-galli
In short: as §2

[9] = tested on: lambsquarters; assay: Test C pre-/postemergence herbicide test; assay type: in vivo, Chenopodium album
In short: as §2

[10] = tested on: barnyardgrass; assay: Test B flooded paddy test; assay type: in vivo, Echinochloa crus-galli; conditions: 500 g ai/ha, Flood; scale of 0 to 100 where 0 is no effect and 100 is complete control
In short: as §3

[11] = tested on: rice; assay: Test B flooded paddy test; assay type: in vivo, Oryza sativa; conditions: 500 g ai/ha, Flood; scale of 0 to 100 where 0 is no effect and 100 is complete control
In short: as §3

[12] = tested on: nutsedge, yellow; assay: Test C pre-/postemergence herbicide test; assay type: in vivo, Cyperus esculentus
In short: as §2

[13] = 125 g ai/ha, visual rating on 0 to 100 scale (0 no effect, 100 complete control), approx. 10 days
[14] = 500 g ai/ha, 0 to 100 scale (0 no effect, 100 complete control)
[15] = Postemergence, 125 g ai/ha, visual rating on 0 to 100 scale (0 no effect, 100 complete control), approx. 10 days
[16] = Postemergence, 500 g ai/ha, 0 to 100 scale (0 no effect, 100 complete control)
[17] = Preemergence, 125 g ai/ha, 0 to 100 scale where 0 is no effect and 100 is complete control
[18] = Preemergence, 500 g ai/ha, visual rating on 0 to 100 scale (0 no effect, 100 complete control)
[19] = Postemergence, 31 g ai/ha, scale 0 to 100 (0 no effect, 100 complete control)
[20] = Postemergence, 62 g ai/ha, scale 0 (no effect) to 100 (complete control)
[21] = Postemergence, 125 g ai/ha, scale 0 to 100 (0 no effect, 100 complete control)
[22] = Postemergence, 250 g ai/ha, scale 0 to 100 (0 no effect, 100 complete control)
[23] = Preemergence, 31 g ai/ha, scale 0 to 100, 0 is no effect and 100 is complete control
[24] = Preemergence, 62 g ai/ha, scale 0 to 100 (0 no effect, 100 complete control)
[25] = Preemergence, 125 g ai/ha, scale 0 to 100
[26] = Preemergence, 125 g ai/ha, scale 0 to 100 (0 no effect, 100 complete control)

Structure (SMILES): Cc1cccc(NC(=O)C2C(=O)NCC2c2cccc(C(F)(F)F)c2)c1 (centres unmarked) [Compound 317]
- Plant response rating, Wheat [1, 13]: 0
- Plant response rating, Wheat [1, 14]: 20
- Plant response rating, Foxtail, Giant [2, 15]: 80
- Plant response rating, Foxtail, Giant [2, 16]: 90
- Plant response rating, Foxtail, Giant [2, 17]: 90
- Foxtail, Giant plant response rating [2, 18]: 90
- Plant response rating, Blackgrass [3, 19]: 0
- Plant response rating, Blackgrass [3, 20]: 0
- Plant response rating, Blackgrass [3, 21]: 0
- Plant response rating, Blackgrass [3, 22]: 0
- Blackgrass plant response rating [3, 23]: 0
- Blackgrass plant response rating [3, 24]: 40
- Plant response rating, Blackgrass [3, 25]: 50
- Plant response rating (scale of 0 to 100), Blackgrass ([3]; Preemergence, 250 g ai/ha): 50
- Plant response rating, Ducksalad [4]: 80
- Plant response rating, Pigweed [5, 19]: 5
- Plant response rating, Pigweed [5, 20]: 5
- Plant response rating, Pigweed [5, 21]: 5
- Plant response rating, Pigweed [5, 22]: 5
- Pigweed plant response rating [5, 23]: 0
- Pigweed plant response rating [5, 24]: 0
- Plant response rating, Pigweed [5, 25]: 0
- Plant response rating, Crabgrass, Large [6, 19]: 0
- Plant response rating, Crabgrass, Large [6, 20]: 25
- Plant response rating, Crabgrass, Large [6, 21]: 45
- Plant response rating, Crabgrass, Large [6, 22]: 50
- Crabgrass, Large plant response rating [6, 23]: 95
- Crabgrass, Large plant response rating [6, 24]: 95
- Plant response rating, Crabgrass, Large [6, 25]: 95
- Plant response rating (scale of 0 to 100), Crabgrass, Large ([6]; Preemergence, 250 g ai/ha): 98
- Plant response rating, Oilseed Rape [7, 19]: 0
- Plant response rating, Oilseed Rape [7, 20]: 0
- Plant response rating, Oilseed Rape [7, 21]: 0
- Plant response rating, Oilseed Rape [7, 22]: 0
- Oilseed Rape plant response rating [7, 23]: 0
- Oilseed Rape plant response rating [7, 24]: 0
- Plant response rating, Oilseed Rape [7, 25]: 0
- Plant response rating (scale of 0 to 100), Oilseed Rape ([7]; Preemergence, 250 g ai/ha): 0
- Plant response rating, Barnyardgrass [8, 19]: 0
- Plant response rating, Barnyardgrass [8, 20]: 0
- Plant response rating, Barnyardgrass [8, 21]: 25
- Plant response rating, Barnyardgrass [8, 22]: 70
- Barnyardgrass plant response rating [8, 23]: 90
- Barnyardgrass plant response rating [8, 24]: 90
- Plant response rating, Barnyardgrass [8, 26]: 95
- Plant response rating (scale of 0 to 100; 0 is no effect, 100 is complete control), Barnyardgrass ([8]; Preemergence, 250 g ai/ha): 95
- Plant response rating, Lambsquarters [9, 19]: 0
- Plant response rating, Lambsquarters [9, 20]: 0
- Plant response rating, Lambsquarters [9, 21]: 25
- Plant response rating, Lambsquarters [9, 22]: 25
- Lambsquarters plant response rating [9, 23]: 0
- Lambsquarters plant response rating [9, 24]: 0
- Plant response rating, Lambsquarters [9, 25]: 0
- Plant response rating (scale of 0 to 100), Lambsquarters ([9]; Preemergence, 250 g ai/ha): 10
- Plant response rating, Barnyardgrass [10]: 75
- Plant response rating, Rice [11]: 0
- Plant response rating, Nutsedge, Yellow [12, 19]: 0
- Plant response rating, Nutsedge, Yellow [12, 20]: 0
- Plant response rating, Nutsedge, Yellow [12, 21]: 0
- Plant response rating, Nutsedge, Yellow [12, 22]: 0
- Nutsedge, Yellow plant response rating [12, 23]: 0
- Nutsedge, Yellow plant response rating [12, 24]: 0
- Plant response rating, Nutsedge, Yellow [12, 25]: 20
- Plant response rating (scale of 0 to 100), Nutsedge, Yellow ([12]; Preemergence, 250 g ai/ha): 70

Structure (SMILES): O=C1NCC(c2cccc(OC(F)F)c2)C1C(=O)Nc1cccc(F)c1F (centres unmarked) [Compound 324]
- Plant response rating, Wheat [1, 13]: 30
- Plant response rating, Wheat [1, 14]: 80
- Plant response rating, Foxtail, Giant [2, 15]: 90
- Plant response rating, Foxtail, Giant [2, 16]: 90
- Plant response rating, Foxtail, Giant [2, 17]: 90
- Foxtail, Giant plant response rating [2, 18]: 90
- Plant response rating, Blackgrass [3, 19]: 0
- Plant response rating, Blackgrass [3, 20]: 0
- Plant response rating, Blackgrass [3, 21]: 0
- Plant response rating, Blackgrass [3, 22]: 0
- Blackgrass plant response rating [3, 23]: 100
- Blackgrass plant response rating [3, 24]: 30
- Plant response rating, Blackgrass [3, 25]: 70
- Plant response rating (scale of 0 to 100), Blackgrass ([3]; Preemergence, 250 g ai/ha): 95
- Plant response rating, Ducksalad [4]: 100
- Plant response rating, Pigweed [5, 19]: 0
- Plant response rating, Pigweed [5, 20]: 35
- Plant response rating, Pigweed [5, 21]: 65
- Plant response rating, Pigweed [5, 22]: 55
- Pigweed plant response rating [5, 23]: 55
- Pigweed plant response rating [5, 24]: 75
- Plant response rating, Pigweed [5, 25]: 80
- Plant response rating, Crabgrass, Large [6, 19]: 25
- Plant response rating, Crabgrass, Large [6, 20]: 60
- Plant response rating, Crabgrass, Large [6, 21]: 70
- Plant response rating, Crabgrass, Large [6, 22]: 75
- Crabgrass, Large plant response rating [6, 23]: 95
- Crabgrass, Large plant response rating [6, 24]: 95
- Plant response rating, Crabgrass, Large [6, 25]: 98
- Plant response rating (scale of 0 to 100), Crabgrass, Large ([6]; Preemergence, 250 g ai/ha): 98
- Plant response rating, Oilseed Rape [7, 19]: 0
- Plant response rating, Oilseed Rape [7, 20]: 0
- Plant response rating, Oilseed Rape [7, 21]: 0
- Plant response rating, Oilseed Rape [7, 22]: 0
- Oilseed Rape plant response rating [7, 23]: 0
- Oilseed Rape plant response rating [7, 24]: 70
- Plant response rating, Oilseed Rape [7, 25]: 85
- Plant response rating (scale of 0 to 100), Oilseed Rape ([7]; Preemergence, 250 g ai/ha): 90
- Plant response rating, Barnyardgrass [8, 19]: 0
- Plant response rating, Barnyardgrass [8, 20]: 35
- Plant response rating, Barnyardgrass [8, 21]: 55
- Plant response rating, Barnyardgrass [8, 22]: 65
- Barnyardgrass plant response rating [8, 23]: 90
- Barnyardgrass plant response rating [8, 24]: 95
- Plant response rating, Barnyardgrass [8, 26]: 95
- Plant response rating (scale of 0 to 100; 0 is no effect, 100 is complete control), Barnyardgrass ([8]; Preemergence, 250 g ai/ha): 98
- Plant response rating, Lambsquarters [9, 19]: 0
- Plant response rating, Lambsquarters [9, 20]: 55
- Plant response rating, Lambsquarters [9, 21]: 70
- Plant response rating, Lambsquarters [9, 22]: 65
- Lambsquarters plant response rating [9, 23]: 50
- Lambsquarters plant response rating [9, 24]: 70
- Plant response rating, Lambsquarters [9, 25]: 80
- Plant response rating (scale of 0 to 100), Lambsquarters ([9]; Preemergence, 250 g ai/ha): 85
- Plant response rating, Barnyardgrass [10]: 80
- Plant response rating, Rice [11]: 30
- Plant response rating, Nutsedge, Yellow [12, 19]: 0
- Plant response rating, Nutsedge, Yellow [12, 20]: 0
- Plant response rating, Nutsedge, Yellow [12, 21]: 0
- Plant response rating, Nutsedge, Yellow [12, 22]: 0
- Nutsedge, Yellow plant response rating [12, 23]: 0
- Nutsedge, Yellow plant response rating [12, 24]: 0
- Plant response rating, Nutsedge, Yellow [12, 25]: 0
- Plant response rating (scale of 0 to 100), Nutsedge, Yellow ([12]; Preemergence, 250 g ai/ha): 35

Reference: patent US10294202B2, “Pyrrolidinones as herbicides” (FMC Corporation, priority 2013, dated 2019)
